Measured values taken from patent US10160755B2 (Plexxikon Inc., priority 2015, dated 2018).

Assays:
[1] = molecular target: c-Kit (Homo sapiens, UniProt P10721); assay: c-Kit biochemical assay (per US 2007/0032519)
Method: The following Table 2 provides data indicating FLT3 ITD, FLT3 D835Y, and KIT biochemical activity, and BaF3 FLT3 ITD/F69L cellular inhibitory activity for exemplary compounds described in this disclosure. In the table below, activity is provided as follows: +++=0.0001<IC50<1 μM; ++=1 μM<IC50<10 μM, +=10 μM<IC50<200 μM. Assays for the biochemical activity of c-Kit and FMS were conducted according to those assays described in US Patent Application Publication number US 2007/0032519, the disclosure of which is hereby incorporated by reference in its entirety.

[2] = molecular target: T1, FLT3-ITD (Homo sapiens, UniProt P36888); assay: FLT3-ITD biochemical kinase assay (AlphaScreen)
T1 construct: FLT3-ITD; Invitrogen #PV6190
T1 sequence (P36888 1-993): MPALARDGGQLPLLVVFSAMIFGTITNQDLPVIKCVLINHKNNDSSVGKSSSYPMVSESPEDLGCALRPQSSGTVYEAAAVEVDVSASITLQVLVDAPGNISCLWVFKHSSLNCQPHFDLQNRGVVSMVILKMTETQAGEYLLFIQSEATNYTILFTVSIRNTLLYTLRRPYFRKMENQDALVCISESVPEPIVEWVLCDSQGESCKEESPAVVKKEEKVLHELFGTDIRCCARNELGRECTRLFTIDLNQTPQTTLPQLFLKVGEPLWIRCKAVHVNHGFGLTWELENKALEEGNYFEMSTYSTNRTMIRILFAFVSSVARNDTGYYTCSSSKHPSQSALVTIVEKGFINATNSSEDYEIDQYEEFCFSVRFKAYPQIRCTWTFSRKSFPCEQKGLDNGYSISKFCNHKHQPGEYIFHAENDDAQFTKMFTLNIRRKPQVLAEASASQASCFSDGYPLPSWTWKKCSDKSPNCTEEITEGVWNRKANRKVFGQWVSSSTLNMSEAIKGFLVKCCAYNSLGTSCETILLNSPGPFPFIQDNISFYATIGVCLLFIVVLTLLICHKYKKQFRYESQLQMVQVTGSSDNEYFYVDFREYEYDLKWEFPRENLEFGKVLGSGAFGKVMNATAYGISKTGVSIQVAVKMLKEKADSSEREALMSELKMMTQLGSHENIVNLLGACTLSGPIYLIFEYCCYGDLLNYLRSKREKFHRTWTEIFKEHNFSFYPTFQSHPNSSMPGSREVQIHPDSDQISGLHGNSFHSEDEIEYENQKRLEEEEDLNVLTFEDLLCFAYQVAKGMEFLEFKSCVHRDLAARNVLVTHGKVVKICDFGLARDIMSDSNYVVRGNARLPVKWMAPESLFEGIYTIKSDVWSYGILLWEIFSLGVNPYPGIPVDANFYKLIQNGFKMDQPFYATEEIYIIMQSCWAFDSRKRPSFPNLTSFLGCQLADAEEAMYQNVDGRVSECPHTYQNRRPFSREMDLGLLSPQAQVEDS
Procedure, shortened: (§1)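 IC50 values reflect loss of AlphaScreen proximity signal (excitation 680 nm, emission 580 nm) from tyrosine phosphorylation of a biotinylated poly(Glu4-Tyr) substrate at 30 nM. ATP was 10 μM for the D835Y mutant and 100 μM for ITD. Detection used PY20 acceptor beads.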

[3] = molecular target: T2, FLT3-D835Y (Homo sapiens, UniProt P36888, D835Y); assay: FLT3-D835Y biochemical kinase assay (AlphaScreen)
T2 construct: purchased Invitrogen PV3967
T2 sequence (P36888 27-993 D835Y): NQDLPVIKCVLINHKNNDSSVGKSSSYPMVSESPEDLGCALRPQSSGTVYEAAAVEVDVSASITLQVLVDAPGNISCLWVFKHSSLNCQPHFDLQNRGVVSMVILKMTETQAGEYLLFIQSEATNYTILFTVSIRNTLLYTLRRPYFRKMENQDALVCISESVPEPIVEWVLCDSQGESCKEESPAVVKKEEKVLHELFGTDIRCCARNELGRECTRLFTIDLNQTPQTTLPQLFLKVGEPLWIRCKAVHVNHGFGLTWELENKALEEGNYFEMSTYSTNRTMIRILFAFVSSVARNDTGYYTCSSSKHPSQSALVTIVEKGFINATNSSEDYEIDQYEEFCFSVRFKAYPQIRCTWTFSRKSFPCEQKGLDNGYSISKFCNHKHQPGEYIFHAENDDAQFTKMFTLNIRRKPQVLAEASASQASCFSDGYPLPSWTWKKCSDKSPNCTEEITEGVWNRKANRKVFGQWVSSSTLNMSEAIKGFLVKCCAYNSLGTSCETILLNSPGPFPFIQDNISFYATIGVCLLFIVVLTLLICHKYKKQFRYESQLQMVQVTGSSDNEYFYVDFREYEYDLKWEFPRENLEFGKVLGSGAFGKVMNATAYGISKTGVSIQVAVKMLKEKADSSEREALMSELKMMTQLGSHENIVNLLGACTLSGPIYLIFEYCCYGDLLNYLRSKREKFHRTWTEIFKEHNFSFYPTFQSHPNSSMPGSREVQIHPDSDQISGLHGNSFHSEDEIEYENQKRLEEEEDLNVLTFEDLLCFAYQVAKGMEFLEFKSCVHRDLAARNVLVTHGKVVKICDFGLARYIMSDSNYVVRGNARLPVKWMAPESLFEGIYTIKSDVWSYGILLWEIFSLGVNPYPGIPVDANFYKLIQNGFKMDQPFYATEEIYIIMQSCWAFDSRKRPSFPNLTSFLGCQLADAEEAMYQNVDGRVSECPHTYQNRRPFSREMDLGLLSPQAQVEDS
Procedure, shortened: as §1

Sequence of c-Kit (P10721 26-976): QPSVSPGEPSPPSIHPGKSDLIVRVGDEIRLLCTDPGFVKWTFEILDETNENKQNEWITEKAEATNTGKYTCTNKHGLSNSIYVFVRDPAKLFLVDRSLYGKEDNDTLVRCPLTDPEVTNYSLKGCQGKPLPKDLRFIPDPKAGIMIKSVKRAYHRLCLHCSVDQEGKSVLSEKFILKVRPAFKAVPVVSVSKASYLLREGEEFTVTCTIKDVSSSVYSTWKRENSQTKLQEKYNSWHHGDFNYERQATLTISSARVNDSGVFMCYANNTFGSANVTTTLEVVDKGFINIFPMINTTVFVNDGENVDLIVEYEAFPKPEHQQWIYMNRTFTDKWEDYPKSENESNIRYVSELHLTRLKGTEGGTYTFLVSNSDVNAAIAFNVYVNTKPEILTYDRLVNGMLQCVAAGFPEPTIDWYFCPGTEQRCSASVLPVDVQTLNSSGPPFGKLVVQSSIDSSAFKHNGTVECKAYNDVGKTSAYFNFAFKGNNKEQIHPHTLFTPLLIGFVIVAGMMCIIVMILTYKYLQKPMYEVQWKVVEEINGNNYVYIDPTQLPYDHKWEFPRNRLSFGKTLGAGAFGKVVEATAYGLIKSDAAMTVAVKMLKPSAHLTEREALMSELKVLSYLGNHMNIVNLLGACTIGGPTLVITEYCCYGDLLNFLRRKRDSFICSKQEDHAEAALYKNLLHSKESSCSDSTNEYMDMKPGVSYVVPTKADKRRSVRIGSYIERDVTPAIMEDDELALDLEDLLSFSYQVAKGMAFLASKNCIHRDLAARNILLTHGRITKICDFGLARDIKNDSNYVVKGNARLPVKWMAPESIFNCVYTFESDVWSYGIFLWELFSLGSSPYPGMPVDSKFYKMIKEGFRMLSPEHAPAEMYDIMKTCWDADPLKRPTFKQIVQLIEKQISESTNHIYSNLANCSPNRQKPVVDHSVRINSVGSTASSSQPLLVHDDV

SMILES: Cc1nn(C)cc1-c1cnc2[nH]cc(-c3ccc4ncn(C(C)(C)C)c4c3)c2n1 [P-324, 7-(3-tert-butylbenzimidazol-5-yl)-2-(1,3-dimethylpyrazol-4-yl)-5H-pyrrolo[2,3-b]pyrazine]
- IC50 [1]: 0.0001 to 1 µM
- IC50 [2]: 0.0001 to 1 µM

SMILES: Cc1nn(C)cc1-c1ccc(-c2cnc3[nH]cc(-c4ccc5ncn(C(C)(C)C)c5c4)c3n2)cc1 [P-323, 7-(3-tert-butylbenzimidazol-5-yl)-2-[4-(1,3-dimethylpyrazol-4-yl)phenyl]-5H-pyrrolo[2,3-b]pyrazine]
- IC50 [1]: 1 to 10 µM
- IC50 [2]: 0.0001 to 1 µM

SMILES: CS(=O)(=O)Nc1ccc(-c2cnc3[nH]cc(-c4ccc5ncsc5c4)c3n2)cc1 [P-076, N-[4-[7-(1,3-benzothiazol-6-yl)-5H-pyrrolo[2,3-b]pyrazin-2-yl]phenyl]methanesulfonamide]
- IC50 [1]: 1 to 10 µM
- IC50 [3]: 0.0001 to 1 µM

SMILES: Nc1n[nH]c2ccc(-c3c[nH]c4ncccc34)cc12 [P-006, 5-(1H-pyrrolo[2,3-b]pyridin-3-yl)-1H-indazol-3-amine]
- IC50 [1]: 1 to 10 µM
- IC50 [2]: 1 to 10 µM

SMILES: COc1cnc2[nH]cc(-c3ccc4ncn(C(C)C)c4c3)c2c1 [P-050, 1-isopropyl-6-(5-methoxy-1H-pyrrolo[2,3-b]pyridin-3-yl)benzimidazole]
- IC50 [1]: 10 to 200 µM
- IC50 [2]: 0.0001 to 1 µM

SMILES: Cn1cc(-c2cnc3[nH]cc(-c4ccc5ncn(C)c5c4)c3c2)ccc1=O [P-118, 1-methyl-5-[3-(3-methylbenzimidazol-5-yl)-1H-pyrrolo[2,3-b]pyridin-5-yl]pyridin-2-one]
- IC50 [1]: 1 to 10 µM
- IC50 [3]: 0.0001 to 1 µM

SMILES: COc1cnc2[nH]cc(-c3cc4nc[nH]c4cc3C)c2c1 [P-026, 5-methoxy-3-(6-methyl-1H-benzimidazol-5-yl)-1H-pyrrolo[2,3-b]pyridine]
- IC50 [1]: 10 to 200 µM
- IC50 [3]: 1 to 10 µM

SMILES: COc1cnc2[nH]cc(-c3ccc4ncn(C5CCCCC5)c4c3)c2c1 [P-072, 1-cyclohexyl-6-(5-methoxy-1H-pyrrolo[2,3-b]pyridin-3-yl)benzimidazole]
- IC50 [1]: 1 to 10 µM
- IC50 [3]: 0.0001 to 1 µM

SMILES: CC(C)(C)n1cnc2ccc(-c3c[nH]c4ncc(-c5cnc(NS(C)(=O)=O)nc5)nc34)cc21 [P-404, N-[5-[7-(3-tert-butylbenzimidazol-5-yl)-5H-pyrrolo[2,3-b]pyrazin-2-yl]pyrimidin-2-yl]methanesulfonamide]
- IC50 [1]: 1 to 10 µM
- IC50 [2]: 0.0001 to 1 µM

SMILES: COc1cnc2[nH]cc(-c3ccc4ncn(C5CCNCC5)c4c3)c2c1 [P-071, 5-methoxy-3-[3-(4-piperidyl)benzimidazol-5-yl]-1H-pyrrolo[2,3-b]pyridine]
- IC50 [1]: 10 to 200 µM
- IC50 [3]: 0.0001 to 1 µM

SMILES: CC(C)(C)n1cnc2ccc(-c3c[nH]c4ncc(-c5cncc(N6CCOCC6)c5)nc34)cc21 [P-387, 4-[5-[7-(3-tert-butylbenzimidazol-5-yl)-5H-pyrrolo[2,3-b]pyrazin-2-yl]-3-pyridyl]morpholine]
- IC50 [1]: 0.0001 to 1 µM
- IC50 [2]: 0.0001 to 1 µM

SMILES: Cc1cc2[nH]cnc2cc1-c1c[nH]c2ncccc12 [P-025, 6-methyl-5-(1H-pyrrolo[2,3-b]pyridin-3-yl)-1H-benzimidazole]
- IC50 [1]: 10 to 200 µM
- IC50 [3]: 1 to 10 µM

SMILES: CC(C)(C)n1cnc2ccc(-c3c[nH]c4ncc(-c5cncc(F)c5)nc34)cc21 [P-386, 7-(3-tert-butylbenzimidazol-5-yl)-2-(5-fluoro-3-pyridyl)-5H-pyrrolo[2,3-b]pyrazine]
- IC50 [1]: 1 to 10 µM
- IC50 [2]: 0.0001 to 1 µM
